Test results from PMC4280171, “Novel PDE4 Inhibitors Derived from Chinese Medicine Forsythia” (PLoS ONE, 2014).
Read-outs that look alike come from different tables or passages of the source.

What was measured:
PDE5 = target: T1, PDE5 (Homo sapiens, UniProt O76074); assay: PDE-Glo phosphodiesterase activity assay, PDE5; assay type: biochemical; details: 25 mU purified enzyme per reaction
T1 construct: purchased Millipore
Description: (§1) For the PDE activity assay, all test compounds were diluted in DMSO with final concentrations in each assay of 100, 10, 1, 0.1, 0.01, 0.001, 0.0001 µM. For the PDE4 activity assay, 10 mU of purified PDE4 (Millipore) was used per reaction. Compounds 6, 7, 9 and 13 (blue underline) were further tested in PDE3, 5, 7, 10 activity assays in which 25 mU of purified enzyme was used per reaction. Summary of compound IC50 in lower right corner. TEXT PRINTED IN THE PICTURE: Compound 6: PDE3: >100uM; PDE4: 90nM; PDE5: 80uM; PDE7: >100uM; PDE10: >100uM | Compound 7: PDE3: >100uM; PDE4: 8uM; PDE5: >100uM; PDE7: >100uM; PDE10: >100uM | Compound 9: PDE3: >100uM; PDE4: 60nM; PDE5: >100uM; PDE7: >100uM; PDE10: >100uM | Compound 13: PDE3: >100uM; PDE4: 10nM; PDE5: 90uM; PDE7: >100uM; PDE10: >100uM
(§2) A PDE activity assay was carried out using the PDE-Glo Phosphodiesterase Assay per manufacturer’s instruction (Promega). Briefly, 5 ul of 1X PDE-Glo Reaction buffer containing 10 mU of purified human recombinant PDE4A4 (Millipore) was added to 96 well plate. All test compounds were dissolved in DMSO and a serial dilution (110) of the inhibitors were performed using 1X PDE-Glo Reaction buffer. 7.5 ul of test compounds were added to the PDE enzyme with the final concentrations in each assay of 100, 10, 1, 0.1, 0.01, 0.001, 0.0001 µM, and incubated at room temperature for 10 min. To initiate the PDE reaction, 12.5 ul of 2 µM cAMP was added to each reaction, mixed well and incubate at room temperature for 10 min. The reactions were terminated using 12.5 ul of PDE-Glo Termination Buffer. 12.5 ul of PDE-Glo Detection Solution containing PDE-Glo Detection Buffer and Protein Kinase A was added to each reaction. The reactions were carried at room temperature for 20 min. 50 ul of Kinase-Glo Reagent was then added to each reaction, mixed well, and incubate for 10 minutes at room temperature. The chemical luminescence signals were measured, quantified and graphed. Compounds 6, 7, 9 and 13 were further tested similarly using 25 mU purified PDE3, 5, 7, 10 (Millipore) enzyme.

PDE7 = assay: PDE-Glo phosphodiesterase activity assay, PDE7; assay type: biochemical; details: 25 mU purified enzyme per reaction
Description: as §1, §2

LPS stimulated PBMC = assay: TNF secretion in LPS stimulated PBMC (ELISA); assay type: cell-based; details: Homo sapiens, primed with compound 3 h, LPS 1 ng/ml 8 h
Description: (§3) Figure 4 Tested compounds reduce TNF secretion in LPS stimulated mouse RAW264.7 and human PBMCs. A. 5×10^5 RAW264.7 cells were seeded in 96 wells for 18 h. Cells were primed with compounds at different concentration for 3 h before treated with LPS (1 ng/ml) for additional 8 h. TNF cytokine releases were monitored by ELISA. B. PBMC (0.2 ml at 1×10^5/ml) were primed with compounds at different concentration for 3 h before treated with LPS (1 ng/ml) for additional 8 h. TNF cytokine releases were monitored by ELISA. % of TNF secretion were calculated and graphed. C. Summary of compound IC50. The data represent n = 3–6 experiments. TEXT PRINTED IN THE PICTURE: (C) C6: RAW 264.7: 400nM; PBMC: 90nM | (C) C7: RAW 264.7: 8uM; PBMC: 10uM | (C) C9: RAW 264.7: 100nM; PBMC: 80nM | (C) C13: RAW 264.7: 70nM; PBMC: 25nM
(§4) 5×10^5 RAW264.7 cells were seeded in 96 wells for 18 h. Cells were primed with compounds at different concentration for 3 h before treated with LPS (1 ng/ml) for additional 8 h. TNF cytokine releases were monitored by ELISA. PBMC (0.2 ml at 1×10^5/ml) were primed with compounds at different concentration for 3 h before treated with LPS (1 ng/ml) for additional 8 h. TNF cytokine releases were monitored by ELISA. % of TNF secretion were calculated and graphed.

[1] = test system: C57/BL6 mice given LPS (E. coli, 100 µg i.p.); assay: LPS septic shock model; assay type: in vivo, mouse; details: for ID50 IL-6 / inhibitory dose [ID50] TNF: i.p. 10 min before LPS 100 ug i.p., blood 2 h later
Description: Mice were euthanized 2 h later using pentobarbital where blood was collected and assayed for IL6 and TNF cytokine levels. […] In a separate experiment, a brief pharmacokinetic study was performed where PDE4 inhibitors (1 mg/kg, i.p.) were given to mice 18 h before LPS administration (E. coli, 100 ug i.p.).
Figure 6 PDE4 inhibitors lessen cytokine storm induced by LPS septic shock. C57/BL6 mice were administered i.p. nothing (CON), vehicle, 10 ug/kg, 100 ug/kg, 1 mg/kg or 10 mg/kg of compounds 6, 7 or 9. Mice were given LPS (E. coli, 100 µg) 10 min later through an i.p. injection. 2 h later mice were euthanized using pentobarbital and blood was collected for IL-6 and TNF measurements. Shown in panel A–B is the % inhibition of cytokine levels as a function of drug dose. The data represent n = 3 mice/group at each dose. C57/BL6 mice were also pretreated with compound 5, 6, 7 or 9 at 1 mg/kg. Mice were given LPS (E. coli, 100 µg) 18 h later through an i.p. injection. 2 h later the mice were euthanized using pentobarbital and blood was collected for IL-6 and TNF measurements (C–D).
Compounds were diluted in PBS and various amounts (0.01, 0.1, 1 and 10 mg/kg) of compounds were administered to mice though an i.p. injection. 10 min later, mice were given 100 µg of LPS (E. coli) through an i.p. injection. 2 h later, mice were euthanized. Plasma was collected and processed for cytokine assays.

[2] = test system: murine models of inflammation; details: parenteral and oral application; for severity of tissue injury: in each of the models
PDE3 = assay: PDE-Glo phosphodiesterase activity assay, PDE3; assay type: biochemical; details: 25 mU purified enzyme per reaction
Description: as §1, §2

[3] = test system: LPS stimulated RAW264.7 and PBMC cells; assay: TNF secretion in LPS stimulated cells, RAW264.7 and PBMC; assay type: cell-based, mouse; human; details: Mus musculus
Description: Compound 6, 7, 9 and 13 were also tested in LPS stimulated RAW264.7 (Fig. 4A) and PBMC (Fig. 4B) cells to evaluate their ability to suppress TNF secretion. […] PDE4. […] TNF ranging from 25–75 nM (Fig. 4C).
as §3, §4

PDE4 [4] = assay: PDE-Glo phosphodiesterase activity assay, PDE4; assay type: biochemical, human; details: for IC50: 10 mU purified PDE4 per reaction, PDE-Glo assay
Description: Compounds 1–14 (Fig. 2) were tested in vitro using PDE-glo phosphodiesterase assay (Promega, Madison, WI). Briefly, all the compounds were diluted in DMSO, and the final concentrations in each assay were 100, 10, 1, 0.1, 0.01, 0.001, 0.0001 µM. For the PDE4 activity assay, 10 mU of purified PDE4D (Millipore) was used per reaction. […] PDE4 = 8 µM.
as §1, §2

[5] = test system: LPS stimulated RAW264.7 cells; assay: TNF secretion in LPS stimulated RAW264.7 cells (ELISA); assay type: cell-based; details: Mus musculus, primed with compound 3 h, LPS 1 ng/ml 8 h, read-out: IC50 TNF secretion, RAW 264.7
Description: as §3, §4

[6] = test system: C57/BL6 mice challenged with H1N1 (A/PR/8/34); assay: H1N1 pneumonia model; assay type: in vivo, mouse; details: 30 µg/ml in drinking water, estimated dose 5 mg/kg/d; for survival of mice infected with H1N1: versus diluent
PDE10 = target: T2, PDE10 (Homo sapiens, UniProt Q9Y233); assay: PDE-Glo phosphodiesterase activity assay, PDE10; assay type: biochemical; details: 25 mU purified enzyme per reaction
T2 construct: purchased Millipore
Description: as §1, §2

PDE4 [7] = test system: PDE4; design: method as in PMID 15476679; details: selective inhibitors of PDE4 isolated from traditional Chinese medicines; cited from earlier work
[8] = RAW264.7, range over both cell types (and over the compounds named)

T2 sequence (Q9Y233 whole entry): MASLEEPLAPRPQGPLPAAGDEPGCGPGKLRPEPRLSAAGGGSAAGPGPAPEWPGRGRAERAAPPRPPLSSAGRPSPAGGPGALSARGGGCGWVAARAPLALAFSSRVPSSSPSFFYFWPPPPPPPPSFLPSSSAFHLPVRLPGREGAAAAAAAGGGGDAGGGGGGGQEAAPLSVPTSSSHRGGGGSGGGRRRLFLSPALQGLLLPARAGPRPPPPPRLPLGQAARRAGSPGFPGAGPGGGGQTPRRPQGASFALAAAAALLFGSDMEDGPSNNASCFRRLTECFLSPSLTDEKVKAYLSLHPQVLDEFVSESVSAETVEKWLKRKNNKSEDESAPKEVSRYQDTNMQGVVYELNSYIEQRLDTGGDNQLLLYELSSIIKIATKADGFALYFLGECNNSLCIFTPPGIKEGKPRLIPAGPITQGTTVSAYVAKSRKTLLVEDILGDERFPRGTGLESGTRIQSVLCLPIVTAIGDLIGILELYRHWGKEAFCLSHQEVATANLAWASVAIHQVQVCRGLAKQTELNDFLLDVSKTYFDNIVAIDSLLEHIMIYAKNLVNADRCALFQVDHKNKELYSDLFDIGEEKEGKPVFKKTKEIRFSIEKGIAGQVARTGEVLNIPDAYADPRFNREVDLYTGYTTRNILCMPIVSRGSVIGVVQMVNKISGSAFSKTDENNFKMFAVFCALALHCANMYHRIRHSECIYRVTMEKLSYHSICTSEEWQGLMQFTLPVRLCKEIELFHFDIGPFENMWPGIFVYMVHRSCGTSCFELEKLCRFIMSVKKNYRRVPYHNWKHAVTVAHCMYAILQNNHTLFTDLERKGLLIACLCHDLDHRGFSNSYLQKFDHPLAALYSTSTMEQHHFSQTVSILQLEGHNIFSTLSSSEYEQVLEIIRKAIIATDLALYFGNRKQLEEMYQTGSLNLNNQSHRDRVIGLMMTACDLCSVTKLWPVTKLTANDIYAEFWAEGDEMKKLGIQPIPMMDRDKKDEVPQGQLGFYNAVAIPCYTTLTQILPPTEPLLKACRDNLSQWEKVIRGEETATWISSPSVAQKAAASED

| Structure (SMILES) | IC50 (PDE5) [µM] | IC50 (PDE7) [µM] | IC50 (LPS stimulated PBMC) [µM] | ID50 IL-6 [1] | inhibitory dose [ID50] TNF [1] | severity of tissue injury [2] | overt signs of distress in treated animals [2] | IC50 (PDE3) [µM] | IC50 [3, 8] [µM] | IC50 (PDE4 [4]) [µM] | IC50 [5] [µM] | lavage cell counts, protein concentrations, and lavage cytokine IL-6 and TNF [6] | serum cytokines from H1N1-induced systematic inflammation [6] | signs of tissue injury (H&E, lung) [6] | survival of mice infected with H1N1 [6] | IC50 (PDE10) [µM] | IC50 ([3]; RAW264.7, range over both cell types) [µM] | times weaker in activity toward PDE4 compared with compound 6 (PDE4 [4]; in vitro) [times] | serum TNF and IL-6 after 18 h lead time ([1]; 1 mg/kg i.p. 18 h before LPS 100 ug i.p.) | IC50 (PDE4 [7]) [µM] |
| --- | --- | --- | --- | --- | --- | --- | --- | --- | --- | --- | --- | --- | --- | --- | --- | --- | --- | --- | --- | --- |
| COc1ccc(C2OCC3(O)C(c4ccc(OC)c(OC)c4)OCC23)cc1OC (stereo not drawn) [Compound 6] | 80 | > 100 | 0.09 | 0.1∼1 mg/kg | 0.01∼1 mg/kg | lessen severity of tissue injury | none of the animals treated with the agents exhibited overt signs of distress | > 100 | 0.025 to 0.4 | 0.09 | 0.4 | decreased | significantly reduced | able to lessen signs of tissue injury | significantly improved the survival | > 100 |  |  |  |  |
| COc1ccc([C@@H]2OC[C@H]3[C@@H]2CO[C@@H]3c2ccc(O[C@@H]3O[C@H](CO)[C@@H](O)[C@H](O)[C@H]3O)c(OC)c2)cc1OC [Compound 7, Forsythin] | > 100 | > 100 | 10 | 0.1∼1 mg/kg | 0.01∼1 mg/kg | lessen severity of tissue injury | none of the animals treated with the agents exhibited overt signs of distress | > 100 |  | 8 | 8 | decreased | significantly reduced | able to lessen signs of tissue injury | significantly improved the survival | > 100 | 8 to 10 | > 80 |  |  |
| COc1cccc(CN2N=NC3C(=O)N(c4ccc(OC)c(OC)c4)C(=O)C32)c1 (stereo not drawn) [Compound 9] | > 100 | > 100 | 0.08 | 0.1∼1 mg/kg | 0.01∼1 mg/kg | lessen severity of tissue injury | none of the animals treated with the agents exhibited overt signs of distress | > 100 | 0.025 to 0.4 | 0.06 | 0.1 | decreased | significantly reduced | able to lessen signs of tissue injury | significantly improved the survival | > 100 |  |  | excellent efficacy reducing both serum TNF and IL-6 cytokines |  |
| COc1ccc(N2C(=O)C3N=NN(CC(=O)Nc4cc(C)cc(C)c4)C3C2=O)cc1OC (stereo not drawn) [Compound 13] | 90 | > 100 | 0.025 |  |  | lessen severity of tissue injury | none of the animals treated with the agents exhibited overt signs of distress | > 100 | 0.025 to 0.4 | 0.01 | 0.07 | decreased | significantly reduced | able to lessen signs of tissue injury | significantly improved the survival | > 100 |  |  |  |  |
| COc1ccc([C@@H]2CC(=O)c3c(O)cc(O)cc3O2)cc1O [Hesperetin] |  |  |  |  |  |  |  |  |  |  |  |  |  |  |  |  |  |  |  | 10 to 100 |
| COc1cc(O)c2c(=O)c(-c3ccc(O)cc3)coc2c1 [prunetin] |  |  |  |  |  |  |  |  |  |  |  |  |  |  |  |  |  |  |  | 10 to 100 |
